Experimental data taken from patent US20230045421A1 (priority 2018, published 2023).

test system: HBV rcDNA; experiment: HepDE19 assay with bDNA quantitation of HBV rcDNA; format: cell-based, hepatitis B virus; details: HepDE19 assay, inhibition of formation of rcDNA; read-out: DE-19bDNA EC50
Protocol: HepDE19 Assay with bDNA Quantitation of HBV rcDNA:
HepDE19 cell culture system is a HepG2 (human hepatocarcinoma) derived cell line that supports HBV DNA replication and cccDNA formation in a tetracycline (Tet)-regulated manner and produces HBV rcDNA and a detectable reporter molecule dependent on the production and maintenance of cccDNA (Guo, et al., 2007, J. Virol. 81:12472-12484).
HepDE19 (50,000 cells/well) were plated in 96-well collagen-coated tissue-culture treated microtiter plates in DMEM/F12 medium supplemented with 10% fetal bovine serum, 1% penicillin-streptomycin and 1 μg/mL tetracycline and incubated in a humidified incubator at 37° C. and 5% CO2 overnight. Next day, the cells were switched to fresh medium without tetracycline and incubated for 4 hours at 37° C. and 5% CO2. The cells were treated with fresh Tet-free medium with compounds at concentrations starting at 25 μM and a serial, […], 8-point, titration series in duplicate. The final DMSO concentration in the assay was 0.5%. The plates were incubated for 7 days in a humidified incubator at 37° C. and 5% CO2. Following a 7 day-incubation, the level of rcDNA present in the inhibitor-treated wells was measured using a Quantigene 2.0 bDNA assay kit (Affymetrix, Santa Clara, Calif.) with HBV specific custom probe set and manufacturers instructions. Concurrently, the effect of compounds on cell viability was assessed using replicate plates, plated at a density of 5,000 cells/well and incubated for 4 days, to determine the ATP content as a measure of cell viability using the cell-titer glo reagent (CTG; Promega Corporation, Madison, Wis.) as per manufacturer's instructions. The plates were read using a Victor luminescence plate reader (PerkinElmer Model 1420 Multilabel counter) and the relative luminescence units (RLU) data generated from each well was calculated as % inhibition of the untreated control wells and analyzed using XL-Fit module in Microsoft Excel to determine EC50 and EC90 (bDNA) and CC50 (CTG) values using a 4-parameter curve fitting algorithm.

| SMILES | EC50 |
| --- | --- |
| CC(c1cn(Cc2c[nH]nn2)c(=O)c2ccccc12)N(C)C(=O)Nc1ccc(F)c(Cl)c1 (single isomer, unassigned) [Compound 277, 1-(1-(2-((1H-1,2,3-Triazol-4-yl)methyl)-1-oxo-1,2-dihydroisoquinolin-4-yl)ethyl)-3-(3-chloro-4-fluorophenyl)-1-methylurea] | 0.79 µM |
| COc1ncc(C(CCO)NC(=O)Nc2ccc(F)c(Cl)c2)c2ccccc12 (single isomer, unassigned) [Compound 78, 1-(3-Chloro-4-fluorophenyl)-3-(3-hydroxy-1-(1-methoxyisoquinolin-4-yl)propyl)urea] | 24 µM |
| CC(c1c[nH]c(=O)c2cc(F)ccc12)N(C)C(=O)Nc1ccc(F)c(Cl)c1 (single isomer, unassigned) [Compound 264, 3-(3-Chloro-4-fluorophenyl)-1-(1-(7-fluoro-1-oxo-1,2-dihydroisoquinolin-4-yl)ethyl)-1-methylurea] | 0.019 µM |
| CC(c1cnc(NCc2ncn(C)n2)c2ccccc12)N(C)C(=O)Nc1ccc(F)c(Cl)c1 (single isomer, unassigned) [Compound 245, 3-(3-Chloro-4-fluorophenyl)-1-methyl-1-(1-(1-(((1-methyl-1H-1,2,4-triazol-3-yl)methyl)amino)isoquinolin-4-yl)ethyl)urea] | 13 µM |
| Cc1[nH]c(=O)c2ccccc2c1C(C)N(C)C(=O)Nc1ccc(F)c(Cl)c1 (single isomer, unassigned) [Compound 223, 3-(3-Chloro-4-fluorophenyl)-1-methyl-1-(1-(3-methyl-1-oxo-1,2-dihydroisoquinolin-4-yl)ethyl)urea] | 0.027 µM |
| CC(c1cnc(N)c2ccccc12)N(C)C(=O)Nc1ccc(F)c(Cl)c1 (single isomer, unassigned) [Compound 238, 1-(1-(1-Aminoisoquinolin-4-yl)ethyl)-3-(3-chloro-4-fluorophenyl)-1-methylurea] | 3.4 µM |
| CC(c1c[nH]c(=O)c2cc(F)ccc12)N(C)C(=O)Nc1ccc(F)c(Cl)c1 (single isomer, unassigned) [Compound 263, 3-(3-Chloro-4-fluorophenyl)-1-(1-(7-fluoro-1-oxo-1,2-dihydroisoquinolin-4-yl)ethyl)-1-methylurea] | 0.78 µM |
| CC(c1c[nH]c(=O)c2ccccc12)N(CCNCC(F)F)C(=O)Nc1ccc(F)c(Cl)c1 (single isomer, unassigned) [Compound 199, 3-(3-Chloro-4-fluorophenyl)-1-(2-((2,2-difluoroethyl)amino)ethyl)-1-(1-(1-oxo-1,2-dihydroisoquinolin-4-yl)ethyl)urea] | 2.2 µM |
| CC(c1c[nH]c(=O)c2ccccc12)N(CC1CCOCC1)C(=O)Nc1ccc(F)c(Cl)c1 (single isomer, unassigned) [Compound 141, 3-(3-Chloro-4-fluorophenyl)-1-(1-(1-oxo-1,2-dihydroisoquinolin-4-yl)ethyl)-1-((tetrahydro-2H-pyran-4-yl)methyl)urea] | 3.4 µM |

same assay, conditions: HepDE19 assay, inhibition of formation of relaxed circular DNA (rcDNA), bDNA quantitation; read-out: DE-19bDNA EC50

| SMILES | EC50 |
| --- | --- |
| Cc1cc(NC(=O)N(C)C(C)c2c[nH]c(=O)c3c(F)c(F)ccc23)ccc1F (single isomer, unassigned) [Compound 441, 1-(1-(7,8-Difluoro-1-oxo-1,2-dihydroisoquinolin-4-yl)ethyl)-3-(4-fluoro-3-methylphenyl)-1-methylurea] | 0.008 µM |
| CC(c1cnc(CO)c2ccccc12)N(C)C(=O)Nc1ccc(F)c(Cl)c1 (single isomer, unassigned) [Compound 327, 3-(3-Chloro-4-fluorophenyl)-1-(1-(1-(hydroxymethyl)isoquinolin-4-yl)ethyl)-1-methylurea] | 0.71 µM |
| CC(c1c[nH]c(=O)c2c(F)c(F)ccc12)N(CCCO)C(=O)Nc1ccc(F)c(Cl)c1 (single isomer, unassigned) [Compound 335, 3-(3-Chloro-4-fluorophenyl)-1-(1-(7,8-difluoro-1-oxo-1,2-dihydroisoquinolin-4-yl)ethyl)-1-(3-hydroxypropyl)urea] | 0.006 µM |
| CC(c1cnc(C(N)=O)c2ccccc12)N(C)C(=O)Nc1ccc(F)c(Cl)c1 (single isomer, unassigned) [Compound 329, 4-(1-(3-(3-Chloro-4-fluorophenyl)-1-methylureido)ethyl)isoquinoline-1-carboxamide] | 0.12 µM |
| CC(c1cnc(OCc2ncn(C)n2)c2cc(F)c(F)cc12)N(C)C(=O)Nc1ccc(F)c(Cl)c1 (single isomer, unassigned) [Compound 347, 3-(3-Chloro-4-fluorophenyl)-1-(1-(6,7-difluoro-1-((1-methyl-1H-1,2,4-triazol-3-yl)methoxy)isoquinolin-4-yl)ethyl)-1-methylurea] | 0.007 µM |
| CC(c1c[nH]c(=O)c2c(F)c(F)ccc12)N(C)C(=O)Nc1ccc2cc[nH]c2c1 (single isomer, unassigned) [Compound 498, 1-(1-(7,8-Difluoro-1-oxo-1,2-dihydroisoquinolin-4-yl)ethyl)-3-(1H-indol-6-yl)-1-methylurea] | 11 µM |
| CC(c1cnc(S(C)(=O)=O)c2ccccc12)N(C)C(=O)Nc1ccc(F)c(Cl)c1 (single isomer, unassigned) [Compound 315, 3-(3-Chloro-4-fluorophenyl)-1-methyl-1-(1-(1-(methylsulfonyl)isoquinolin-4-yl)ethyl)urea] | 0.8 µM |
| CC(c1c[nH]c(=O)c2c(F)c(F)ccc12)N(C)C(=O)Nc1ccc(F)c(Cl)c1 (single isomer, unassigned) [Compound 331, 3-(3-Chloro-4-fluorophenyl)-1-(1-(7,8-difluoro-1-oxo-1,2-dihydroisoquinolin-4-yl)ethyl)-1-methylurea] | 0.015 µM |

same assay, conditions: Hepatitis B virus, HepDE19, HepDE19 assay, inhibition of formation of rcDNA; read-out: DE-19bDNA EC50

| SMILES | EC50 |
| --- | --- |
| CC(c1cn(CC(F)(F)F)c(=O)c2ccccc12)N(C)C(=O)Nc1ccc(F)c(Cl)c1 (racemic) [Compound 228, 3-(3-Chloro-4-fluorophenyl)-1-methyl-1-(1-(1-oxo-2-(2,2,2-trifluoroethyl)-1,2-dihydroisoquinolin-4-yl)ethyl)urea] | 0.78 µM |
| CNC(=O)CN(C(=O)Nc1ccc(F)c(Cl)c1)C(C)c1c[nH]c(=O)c2ccccc12 (stereo not shown) [Compound 116, 2-(3-(3-Chloro-4-fluorophenyl)-1-(1-(1-oxo-1,2-dihydroisoquinolin-4-yl)ethyl)ureido)-N-methylacetamide] | 1 µM |
| CC(c1c[nH]c(=O)c2ccccc12)N(Cc1nnc[nH]1)C(=O)Nc1ccc(F)c(Cl)c1 (single isomer, unassigned) [Compound 268, 1-((1H-1,2,4-Triazol-5-yl)methyl)-3-(3-chloro-4-fluorophenyl)-1-(1-(1-oxo-1,2-dihydroisoquinolin-4-yl)ethyl)urea] | 2.6 µM |

same assay, conditions: Hepatitis B virus, HepDE19, HepDE19 assay, inhibition of formation of relaxed circular DNA (rcDNA), bDNA quantitation; read-out: DE-19bDNA EC50

| SMILES | EC50 |
| --- | --- |
| CC(c1c[nH]c(=O)c2ccccc12)N(Cc1cncnc1)C(=O)Nc1ccc(F)c(Cl)c1 (single isomer, unassigned) [Compound 320, 3-(3-Chloro-4-fluorophenyl)-1-(1-(1-oxo-1,2-dihydroisoquinolin-4-yl)ethyl)-1-(pyrimidin-5-ylmethyl)urea] | 13 µM |

same assay, conditions: Hepatitis B virus, HepDE19, read-out: DE-19bDNA EC50 (μM), HepDE19 assay, inhibition of formation of rcDNA

| SMILES | EC50 |
| --- | --- |
| CC(c1c[nH]c(=O)c2ccccc12)N(CC1COC(C)(C)OC1)C(=O)Nc1ccccc1 (single isomer, unassigned) [Compound 275, 1-((2,2-Dimethyl-1,3-dioxan-5-yl)methyl)-1-(1-(1-oxo-1,2-dihydroisoquinolin-4-yl)ethyl)-3-phenylurea] | 0.83 µM |

same assay, conditions: read-out: DE-19bDNA EC50; HepDE19 assay, inhibition of formation of rcDNA

| SMILES | EC50 |
| --- | --- |
| CCN(C(=O)Nc1ccc(F)c(Cl)c1)C(c1ccccc1)c1c[nH]c(=O)c2ccccc12 (single isomer, unassigned) [Compound 70, 3-(3-Chloro-4-fluorophenyl)-1-ethyl-1-((1-oxo-1,2-dihydroisoquinolin-4-yl)(phenyl)methyl)urea] | 16 µM |
| CC(c1c[nH]c(=O)c2ccccc12)N(CCCO)C(=O)Nc1ccc(F)c(Cl)c1 (single isomer, unassigned) [Compound 131, 3-(3-Chloro-4-fluorophenyl)-1-(3-hydroxypropyl)-1-(1-(1-oxo-1,2-dihydroisoquinolin-4-yl)ethyl)urea] | 0.01 µM |

same assay, conditions: read-out: DE-19bDNA EC50; HepDE19 assay, inhibition of formation of relaxed circular DNA (rcDNA), bDNA quantitation

| SMILES | EC50 |
| --- | --- |
| CC(c1c[nH]c(=O)c2cc(F)c(F)cc12)N(C)C(=O)Nc1ccc(Cl)cc1 (single isomer, unassigned) [Compound 400, 3-(4-Chlorophenyl)-1-(1-(6,7-difluoro-1-oxo-1,2-dihydroisoquinolin-4-yl)ethyl)-1-methylurea] | 7.2 µM |
